Article PMC11200018 (2024)

Columns and labels:
[1] = system: TelQD (DNA, G4) GGGCGCGAAGCATTCGCGGGGTTAGGGTTAGGG; assay: NMR solution structure; conditions: 120 mM K+; 20 mM potassium phosphate, 100 mM KCl, pH 7.0, 25 °C; refolds to (3+1) hybrid-2
[2] = system: TelQD31 (DNA, G4) GGGCGCGAAGCATTCGCGGGGTTAGGGTGGG; assay: NMR titration; conditions: 120 mM K+; 120 mM K+ buffer, pH 7.0; binding at quadruplex-duplex junction
[3] = system: 32BrTelQD (DNA, G4, 8-bromo-2'-deoxyguanosine at 32) GGGCGCGAAGCATTCGCGGGGTTAGGGTTAGGG; assay: NMR titration and induced CD; conditions: 120 mM K+; 120 mM K+ buffer, pH 7.0; incomplete refolding, polymorphic complex

Measured: binding

C[n+]1cc(NC(=O)c2ccc3ccc4ccc(C(=O)Nc5cc6ccccc6[n+](C)c5)nc4c3n2)cc2ccccc21
yes: [1] | [2] | [3]
